Reference: the Kinase Knowledgebase extract (Sharma et al. 2016)

How the values were obtained:
PIK3CG (human) = PIK3CG (human) (UniProt P48736); experiment: Assessment of PI3KCG Kinase Activity
PIK3CD (Human) = PIK3CD (Human) (UniProt O00329); experiment: Assessment of PI3KCD Kinase Activity
PIK3CA (human) = PIK3CA (human) (UniProt P42336); experiment: Assessment of PI3KCA Kinase Activity
PIK3CB (Human) = PIK3CB (Human) (UniProt P42338); experiment: Assessment of PI3KCB Kinase Activity
PIK3CB (Human), sequence (P42338 whole entry, looked up): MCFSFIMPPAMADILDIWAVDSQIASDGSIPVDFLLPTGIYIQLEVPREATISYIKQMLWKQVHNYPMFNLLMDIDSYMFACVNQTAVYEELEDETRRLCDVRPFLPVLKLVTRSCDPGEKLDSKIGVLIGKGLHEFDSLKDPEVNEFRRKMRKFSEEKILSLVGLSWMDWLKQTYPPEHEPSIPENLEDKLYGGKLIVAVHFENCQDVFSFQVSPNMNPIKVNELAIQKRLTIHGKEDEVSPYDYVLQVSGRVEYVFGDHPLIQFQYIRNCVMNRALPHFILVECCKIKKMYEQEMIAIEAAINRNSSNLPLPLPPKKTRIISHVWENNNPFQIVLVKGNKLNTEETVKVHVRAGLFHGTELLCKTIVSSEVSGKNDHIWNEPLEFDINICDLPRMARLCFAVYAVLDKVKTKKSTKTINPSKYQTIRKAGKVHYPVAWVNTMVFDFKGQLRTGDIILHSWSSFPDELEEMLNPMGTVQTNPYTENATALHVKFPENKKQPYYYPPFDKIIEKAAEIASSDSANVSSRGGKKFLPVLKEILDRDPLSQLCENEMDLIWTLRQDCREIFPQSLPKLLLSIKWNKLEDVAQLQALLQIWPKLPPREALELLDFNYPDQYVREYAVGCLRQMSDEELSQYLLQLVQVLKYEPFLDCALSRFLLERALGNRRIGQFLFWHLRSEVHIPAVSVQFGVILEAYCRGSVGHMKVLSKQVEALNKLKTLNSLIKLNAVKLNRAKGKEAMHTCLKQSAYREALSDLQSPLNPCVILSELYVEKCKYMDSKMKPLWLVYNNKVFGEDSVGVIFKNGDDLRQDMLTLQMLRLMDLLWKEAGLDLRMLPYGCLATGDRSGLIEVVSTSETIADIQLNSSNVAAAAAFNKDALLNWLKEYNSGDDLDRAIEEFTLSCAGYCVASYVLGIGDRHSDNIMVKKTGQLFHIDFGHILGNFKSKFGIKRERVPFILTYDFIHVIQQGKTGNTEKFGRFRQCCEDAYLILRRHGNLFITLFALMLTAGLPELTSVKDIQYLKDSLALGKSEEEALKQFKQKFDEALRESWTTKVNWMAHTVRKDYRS

PIK3CG (human), sequence (P48736 whole entry, looked up): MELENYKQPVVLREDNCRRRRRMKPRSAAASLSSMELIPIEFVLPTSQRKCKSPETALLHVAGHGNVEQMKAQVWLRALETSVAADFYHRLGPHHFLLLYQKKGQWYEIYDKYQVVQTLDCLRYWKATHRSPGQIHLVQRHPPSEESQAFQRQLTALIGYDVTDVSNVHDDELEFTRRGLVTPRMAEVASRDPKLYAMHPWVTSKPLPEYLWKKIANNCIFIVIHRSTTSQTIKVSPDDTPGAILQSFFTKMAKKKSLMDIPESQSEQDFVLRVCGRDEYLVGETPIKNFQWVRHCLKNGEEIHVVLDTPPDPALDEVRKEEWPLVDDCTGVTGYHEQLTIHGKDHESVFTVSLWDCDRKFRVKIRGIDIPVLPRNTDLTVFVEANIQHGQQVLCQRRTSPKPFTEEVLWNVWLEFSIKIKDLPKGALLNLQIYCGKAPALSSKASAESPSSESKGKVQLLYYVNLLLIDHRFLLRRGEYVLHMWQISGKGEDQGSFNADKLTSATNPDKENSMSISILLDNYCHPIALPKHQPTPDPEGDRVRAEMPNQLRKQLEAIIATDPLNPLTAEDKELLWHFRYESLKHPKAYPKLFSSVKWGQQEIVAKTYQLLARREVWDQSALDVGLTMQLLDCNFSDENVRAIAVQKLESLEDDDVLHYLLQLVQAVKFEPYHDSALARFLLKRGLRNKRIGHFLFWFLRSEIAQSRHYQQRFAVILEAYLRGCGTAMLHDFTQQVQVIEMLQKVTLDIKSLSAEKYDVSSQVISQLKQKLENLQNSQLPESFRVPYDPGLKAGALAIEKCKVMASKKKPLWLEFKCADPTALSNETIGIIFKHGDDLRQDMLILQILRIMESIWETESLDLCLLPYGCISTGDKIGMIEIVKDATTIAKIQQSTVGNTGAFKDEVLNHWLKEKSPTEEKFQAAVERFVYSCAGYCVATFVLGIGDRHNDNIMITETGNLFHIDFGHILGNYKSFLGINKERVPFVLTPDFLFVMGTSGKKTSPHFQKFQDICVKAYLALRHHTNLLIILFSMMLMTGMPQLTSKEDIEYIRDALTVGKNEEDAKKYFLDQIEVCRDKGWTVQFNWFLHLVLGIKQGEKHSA
PIK3CD (Human), sequence (O00329 whole entry, looked up): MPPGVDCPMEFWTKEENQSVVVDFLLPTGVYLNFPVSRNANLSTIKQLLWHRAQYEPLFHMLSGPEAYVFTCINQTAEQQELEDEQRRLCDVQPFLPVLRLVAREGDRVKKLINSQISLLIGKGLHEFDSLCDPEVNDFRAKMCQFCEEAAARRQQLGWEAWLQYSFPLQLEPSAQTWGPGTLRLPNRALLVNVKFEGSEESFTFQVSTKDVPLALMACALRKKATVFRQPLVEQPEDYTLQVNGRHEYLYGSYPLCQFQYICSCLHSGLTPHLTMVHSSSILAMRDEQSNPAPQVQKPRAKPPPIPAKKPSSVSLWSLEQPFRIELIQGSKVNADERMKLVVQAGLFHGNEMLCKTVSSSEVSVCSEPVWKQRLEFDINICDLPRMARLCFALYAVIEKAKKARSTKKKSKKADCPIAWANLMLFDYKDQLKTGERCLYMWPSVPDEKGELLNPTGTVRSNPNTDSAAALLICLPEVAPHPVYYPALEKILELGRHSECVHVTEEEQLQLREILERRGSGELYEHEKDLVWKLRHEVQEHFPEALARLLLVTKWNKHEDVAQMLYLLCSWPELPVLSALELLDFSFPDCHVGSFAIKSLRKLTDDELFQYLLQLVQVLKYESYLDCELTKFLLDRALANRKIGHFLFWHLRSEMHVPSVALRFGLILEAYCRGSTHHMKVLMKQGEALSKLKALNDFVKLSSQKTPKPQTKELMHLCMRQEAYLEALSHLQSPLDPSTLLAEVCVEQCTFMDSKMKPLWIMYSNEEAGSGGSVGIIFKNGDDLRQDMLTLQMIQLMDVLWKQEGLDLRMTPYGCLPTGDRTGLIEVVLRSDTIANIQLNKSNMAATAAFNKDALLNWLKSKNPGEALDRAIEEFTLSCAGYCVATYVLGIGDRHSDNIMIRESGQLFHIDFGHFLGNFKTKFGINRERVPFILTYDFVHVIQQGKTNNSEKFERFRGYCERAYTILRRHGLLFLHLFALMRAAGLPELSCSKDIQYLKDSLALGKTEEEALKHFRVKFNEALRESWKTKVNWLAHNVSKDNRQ
PIK3CA (human), sequence (P42336 whole entry, looked up): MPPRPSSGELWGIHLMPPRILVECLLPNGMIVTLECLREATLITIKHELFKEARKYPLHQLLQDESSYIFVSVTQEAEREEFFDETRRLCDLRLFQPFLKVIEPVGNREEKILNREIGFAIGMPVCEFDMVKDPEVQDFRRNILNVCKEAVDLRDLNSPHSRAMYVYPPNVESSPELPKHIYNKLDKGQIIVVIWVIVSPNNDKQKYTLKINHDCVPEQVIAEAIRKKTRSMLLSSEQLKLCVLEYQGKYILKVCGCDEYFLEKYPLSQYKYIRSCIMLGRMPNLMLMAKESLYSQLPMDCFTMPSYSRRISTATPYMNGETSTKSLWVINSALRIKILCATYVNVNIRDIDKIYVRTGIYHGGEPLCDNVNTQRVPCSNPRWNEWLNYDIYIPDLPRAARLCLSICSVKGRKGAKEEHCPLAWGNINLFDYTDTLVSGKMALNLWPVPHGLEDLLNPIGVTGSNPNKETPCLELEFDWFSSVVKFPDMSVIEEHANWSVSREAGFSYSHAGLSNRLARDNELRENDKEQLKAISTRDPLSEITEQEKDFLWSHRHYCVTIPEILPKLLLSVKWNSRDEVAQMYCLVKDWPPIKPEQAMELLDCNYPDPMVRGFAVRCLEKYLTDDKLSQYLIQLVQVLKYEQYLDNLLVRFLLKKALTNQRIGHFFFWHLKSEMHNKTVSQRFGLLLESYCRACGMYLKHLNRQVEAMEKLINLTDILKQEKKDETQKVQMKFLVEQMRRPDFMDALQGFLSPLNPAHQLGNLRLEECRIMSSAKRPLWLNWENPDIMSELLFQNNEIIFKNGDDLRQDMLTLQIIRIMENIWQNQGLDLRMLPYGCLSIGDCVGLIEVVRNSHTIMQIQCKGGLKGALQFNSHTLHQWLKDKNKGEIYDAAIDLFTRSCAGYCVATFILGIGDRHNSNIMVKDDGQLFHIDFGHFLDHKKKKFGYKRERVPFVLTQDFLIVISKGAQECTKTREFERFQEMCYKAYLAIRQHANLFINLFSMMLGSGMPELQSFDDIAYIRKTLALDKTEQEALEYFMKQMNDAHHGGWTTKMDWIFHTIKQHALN

| Compound | IC50 (PIK3CG (human)) [nM] | IC50 (PIK3CD (Human)) [nM] | IC50 (PIK3CA (human)) [nM] | IC50 (PIK3CB (Human)) [nM] |
| --- | --- | --- | --- | --- |
| CNC(=O)Nc1nc2ccc(-c3nn(Cc4cc5cccc(C)c5c(=O)n4-c4ccccc4C)c4ncnc(N)c34)cc2s1 | < 100 | < 100 | < 100 |  |
| Nc1ncnc2c1c(-c1cc(O)cc(F)c1)nn2Cc1cc2cccc(Cl)c2c(=O)n1C1CC1 | < 100 | < 100 | < 100 | < 100 |
| CC(=O)Nc1nc2ccc(-c3nn(Cc4cc5cccc(C)c5c(=O)n4C)c4ncnc(N)c34)cc2s1 |  | < 100 | < 100 |  |
| Cc1ccccc1-n1c(Cn2nc(-c3ccc4nc(N)ncc4c3)c3c(N)ncnc32)cc2cccc(C)c2c1=O | < 100 | < 100 | < 100 |  |
| Cc1cccc2cc(Cn3nc(-c4cc(O)cc(F)c4)c4c(N)ncnc43)n(C3CC3)c(=O)c12 | < 100 | < 100 |  | < 100 |
| CCn1c(Cn2nc(-c3ccc4nc(NC(C)=O)sc4c3)c3c(N)ncnc32)cc2cccc(C)c2c1=O | < 100 | < 100 | < 100 |  |
| Cc1ccccc1-n1c(Cn2nc(-c3ccc(F)c(O)c3)c3c(N)ncnc32)cc2ccccc2c1=O | < 100 | < 100 |  |  |
| CC(=O)Nc1nc2ccc(-c3nn(Cc4cc5cccc(C)c5c(=O)n4C4CC4)c4ncnc(N)c34)cc2s1 |  | < 100 | < 100 | < 100 |
| Cc1cccc2cc(Cn3nc(I)c4c(N)ncnc43)n(-c3ccccc3O)c(=O)c12 | < 100 | < 100 |  |  |
| Cc1ccccc1-n1c(Cn2nc(C=CC(N)=O)c3c(N)ncnc32)cc2cccc(C)c2c1=O | < 100 | < 100 |  |  |
| Cc1ccccc1-n1c(Cn2nc(Br)c3c(N)ncnc32)cc2cccc(C)c2c1=O | < 100 | < 100 |  |  |
| Cc1csc2nc(Cn3nc(Br)c4c(N)ncnc43)n(-c3ccccc3C(C)C)c(=O)c12 | < 100 | < 100 |  |  |
| Cc1cccc2cc(Cn3nc(-c4cn[nH]c4)c4c(N)ncnc43)n(-c3ccccc3C(C)C)c(=O)c12 | < 100 | < 100 |  |  |
| Cc1ccccc1-n1c(Cn2nc(-c3ccc(F)c(O)c3)c3c(N)ncnc32)cc2cccc(C)c2c1=O | < 100 | < 100 |  |  |
| CCc1ccccc1-n1c(Cn2nc(-c3cccc(O)c3)c3c(N)ncnc32)nc2scc(C)c2c1=O | < 100 | < 100 |  |  |
| Cc1ccccc1-n1c(Cn2nc(-c3cc(O)cc(F)c3)c3c(N)ncnc32)nc2scc(C)c2c1=O | < 100 | < 100 |  |  |
| CC(=O)Nc1nc2ccc(-c3nn(Cc4cc5cccc(C)c5c(=O)n4C(C)C)c4ncnc(N)c34)cc2s1 |  | < 100 | < 100 |  |
| Cc1ccccc1-n1c(Cn2nc(-c3cccc(O)c3)c3c(N)ncnc32)nc2scc(C)c2c1=O | < 100 | < 100 |  |  |
| CC(=O)Nc1nc2ccc(-c3nn(Cc4cc5cccc(C)c5c(=O)n4-c4cccc(F)c4)c4ncnc(N)c34)cc2s1 | < 100 | < 100 |  |  |
| Cc1cccc2cc(Cn3nc(-c4cc(O)cc(F)c4)c4c(N)ncnc43)n(-c3ccccc3)c(=O)c12 | < 100 | < 100 |  |  |
| CC(=O)Nc1nc2ccc(-c3nn(Cc4cc5cccc(C)c5c(=O)n4C4CCC4)c4ncnc(N)c34)cc2s1 |  | < 100 | < 100 |  |
| CCc1ccccc1-n1c(Cn2nc(-c3cc(O)cc(F)c3)c3c(N)ncnc32)nc2scc(C)c2c1=O | < 100 | < 100 |  |  |
| CC(=O)Nc1nc2ccc(-c3nn(Cc4cc5cccc(Cl)c5c(=O)n4C4CC4)c4ncnc(N)c34)cc2s1 |  | < 100 | < 100 | < 100 |
| CC(=O)Nc1nc2ccc(-c3nn(Cc4cc5cccc(Cl)c5c(=O)n4C(C)C)c4ncnc(N)c34)cc2s1 |  | < 100 | < 100 | < 100 |
| Cc1cccnc1-n1c(Cn2nc(-c3ccc(Cl)c(O)c3)c3c(N)ncnc32)cc2cccc(C)c2c1=O | < 100 | < 100 |  |  |
| Cc1cccnc1-n1c(Cn2nc(-c3ccc(F)c(O)c3)c3c(N)ncnc32)cc2cccc(C)c2c1=O | < 100 | < 100 |  |  |

| Compound | IC50 (PIK3CG (human)) [nM] | IC50 (PIK3CD (Human)) [nM] | IC50 (PIK3CA (human)) [nM] | IC50 (PIK3CB (Human)) [nM] |
| --- | --- | --- | --- | --- |
| Cc1cccc2cc(Cn3nc(-c4cccc(O)c4)c4c(N)ncnc43)n(-c3ccccc3C(C)C)c(=O)c12 | < 100 | < 100 |  |  |
| Cc1ccccc1-n1c(Cn2nc(-c3cc(O)cc(F)c3)c3c(N)ncnc32)cc2nccc(C)c2c1=O | < 100 | < 100 |  |  |
| Cc1ccccc1-n1c(Cn2nc(-c3ccc4nc(N)ccc4c3)c3c(N)ncnc32)cc2cccc(C)c2c1=O | < 100 | < 100 |  |  |
| Cc1cccc2cc(Cn3nc(C#C[C@@H](C)O)c4c(N)ncnc43)n(-c3ccccc3C(C)C)c(=O)c12 | < 100 | < 100 |  |  |
| Cc1ccccc1-n1c(Cn2nc(C=C3SC(=O)NC3=O)c3c(N)ncnc32)cc2cccc(C)c2c1=O | < 100 | < 100 |  |  |
| COc1ccccc1-n1c(Cn2nc(-c3cccc(O)c3)c3c(N)ncnc32)cc2cccc(C)c2c1=O | < 100 | < 100 |  |  |
| Cc1ccccc1-n1c(Cn2nc(-c3cccc(O)c3)c3c(N)ncnc32)cc2nccc(C)c2c1=O | < 100 | < 100 |  |  |
| Cc1ccccc1-n1c(Cn2nc(-c3ccc(O)c(Cl)c3)c3c(N)ncnc32)cc2cccc(C)c2c1=O | < 100 | < 100 |  |  |
| CC(=O)Nc1nc2ccc(-c3nn(Cc4cc5cccc(F)c5c(=O)n4C(C)C)c4ncnc(N)c34)cc2s1 |  | < 100 | < 100 |  |
| Cc1ccccc1-n1c(Cn2nc(-c3ccc(Cl)c(O)c3)c3c(N)ncnc32)cc2ccccc2c1=O | < 100 | < 100 |  |  |
| Cc1cccc2cc(Cn3nc(-c4cccc(O)c4)c4c(N)ncnc43)n(-c3ccccc3)c(=O)c12 | < 100 | < 100 |  |  |
| Cc1cccc2cc(Cn3nc(-c4cccc(O)c4)c4c(N)ncnc43)n(C(C)C)c(=O)c12 | < 100 | < 100 |  |  |
| Cc1csc2nc(Cn3nc(C#C[C@@H](C)O)c4c(N)ncnc43)n(-c3ccccc3F)c(=O)c12 | < 100 | < 100 |  |  |
| Cc1cccc2cc(Cn3nc(-c4cccc(O)c4)c4c(N)ncnc43)n(-c3ccccc3Cl)c(=O)c12 | < 100 | < 100 |  |  |
| Cc1ccccc1-n1c(Cn2nc(C)c3c(N)ncnc32)nc2scc(C)c2c1=O | < 100 | < 100 |  |  |
| Cc1ccccc1-n1c(Cn2nc(-c3cnc4[nH]ccc4c3)c3c(N)ncnc32)cc2cccc(C)c2c1=O | < 100 | < 100 |  |  |
| Cc1ccccc1-n1c(Cn2nc(-c3cc(O)cc(F)c3)c3c(N)ncnc32)cc2ccccc2c1=O | < 100 | < 100 |  |  |
| COc1ccccc1-n1c(Cn2nc(-c3cc(O)cc(F)c3)c3c(N)ncnc32)cc2cccc(C)c2c1=O | < 100 | < 100 |  |  |
| Cc1cccc2cc(Cn3nc(-c4cccc(O)c4)c4c(N)ncnc43)n(-c3ccccc3O)c(=O)c12 | < 100 | < 100 |  |  |
| CC(=O)Nc1nc2ccc(-c3nn(Cc4cc5cccc(C)c5c(=O)n4-c4ccccc4)c4ncnc(N)c34)cc2s1 | < 100 | < 100 |  |  |
| Cc1csc2nc(Cn3nc(-c4cccc(O)c4)c4c(N)ncnc43)n(-c3ccccc3C(C)C)c(=O)c12 | < 100 | < 100 |  |  |
| CCc1ccccc1-n1c(Cn2nc(Br)c3c(N)ncnc32)nc2scc(C)c2c1=O | < 100 | < 100 |  |  |
| Cc1cccc2cc(Cn3nc(C=C4SC(=O)NC4=O)c4c(N)ncnc43)n(-c3ccccc3F)c(=O)c12 | < 100 | < 100 |  |  |
| Cc1ccccc1-n1c(Cn2nc(-c3cccc(O)c3)c3c(N)ncnc32)cc2cccc(C)c2c1=O | < 100 | < 100 |  |  |
| Cc1cccc2cc(C(C)Nc3ncnc4[nH]cnc34)n(-c3ccccc3F)c(=O)c12 (stereo not drawn) | < 100 | < 100 |  |  |
| Cc1ccccc1-n1c(Cn2nc(-c3ccc4ncnc(N)c4c3)c3c(N)ncnc32)cc2cccc(C)c2c1=O | < 100 | < 100 |  |  |
